Laboratory results taken from the supplement of paper PMC10307832.

What follows are cell lines tested with CC(C)CCN1c2nc(Nc3cc(F)c(O)c(F)c3)ncc2N(C)C(=O)C1C [BI-D1870] + COc1cc2c(Oc3ccc(NC(=O)C4(C(=O)Nc5ccc(F)cc5)CC4)cc3F)ccnc2cc1OCCCN1CCOCC1 [Foretinib] (partner 0.25 µM) (assay: relative viability (nuclei count vs DMSO), 5 days (fraction); higher = more cells survive). Conditions: first compound 0.04 µM.
Procedure, shortened: (§1)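 Lung cancer cell lines in 1536-well plates were dosed by pin tool the day after seeding, either with one drug alone or with a fixed anchor-drug dose plus five library-drug doses (not always all listed) in √10 steps. After 5 days, cells were fixed and their nuclei stained in one step (final 0.05% Triton X-100, 1% formaldehyde, 1 ug/ml Hoechst), then counted on 4× images. Relative viability is the nuclei count in treated wells divided by that in vehicle wells. Values are medians of duplicate plates.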

Point of comparison: HCC-827, relative viability 1.05. Against it:
- LOU-NH91 — lower, 0.979
- NCI-H2170 — higher, 1.06
- NCI-H2405 — higher, 1.09
- HOP-62 — higher, 1.27
- LU99A — lower, 0.913
- BEN — lower, 0.654
- HARA — lower, 0.872
- HCC-78 — lower, 0.599
- NCI-H322M — higher, 1.06
- LCLC-97TM1 — higher, 1.1
- A-427 — higher, 1.14
- NCI-H441 — higher, 1.08
- NCI-H1734 — lower, 0.881
- NCI-H460 — higher, 1.09
- NCI-H2347 — lower, 0.977
- NCI-H1395 — lower, 1.03
- 201T — higher, 1.22
- NCI-H1915 — higher, 1.12
- LXF-289 — lower, 1.01
- NCI-H23 — lower, 1
- NCI-H647 — higher, 1.11
- CAL-12T — higher, 1.29
- NCI-H1651 — lower, 0.921
- EPLC-272H — lower, 0.786
- NCI-H1355 — the same, 1.05
- NCI-H3122 — lower, 0.898
- NCI-H1437 — higher, 1.35
- NCI-H1755 — lower, 0.908

Same assay, conditions: first compound 0.1265 µM

Point of comparison: NCI-H441, relative viability 0.787. Against it:
- LK-2 — higher, 1.13
- NCI-H2087 — higher, 1.23
- H3255 — higher, 0.915
- LOU-NH91 — higher, 0.897
- NCI-H2170 — higher, 0.971
- NCI-H2405 — higher, 0.994
- HOP-62 — higher, 1.03
- LU99A — lower, 0.683
- BEN — lower, 0.609
- HARA — higher, 0.855
- HCC-78 — lower, 0.522
- NCI-H322M — higher, 0.805
- LCLC-97TM1 — higher, 0.975
- A-427 — higher, 0.895
- NCI-H1734 — higher, 0.827
- NCI-H460 — higher, 0.869
- NCI-H2347 — higher, 0.993
- NCI-H1395 — higher, 0.92
- 201T — higher, 1.02
- NCI-H1915 — higher, 1.01
- HCC-827 — higher, 0.968
- LXF-289 — higher, 0.942
- NCI-H23 — higher, 1.03
- NCI-H647 — higher, 1.18
- CAL-12T — higher, 0.831
- NCI-H1651 — higher, 0.807
- EPLC-272H — lower, 0.539
- NCI-H1355 — higher, 0.863
- NCI-H3122 — higher, 0.942
- NCI-H1437 — higher, 1.24
- NCI-H1755 — higher, 0.865

Same assay, conditions: first compound 0.4 µM

Point of comparison: CAL-12T, relative viability 1.11. Against it:
- LK-2 — higher, 1.34
- NCI-H2087 — higher, 1.27
- H3255 — lower, 0.953
- LOU-NH91 — lower, 0.876
- NCI-H2170 — lower, 1.05
- NCI-H2405 — lower, 1.01
- HOP-62 — lower, 1.07
- LU99A — lower, 0.696
- BEN — lower, 0.76
- HARA — lower, 0.867
- HCC-78 — lower, 0.529
- NCI-H322M — lower, 0.868
- LCLC-97TM1 — lower, 0.893
- A-427 — lower, 0.991
- NCI-H441 — lower, 1.05
- NCI-H1734 — lower, 0.883
- NCI-H460 — lower, 0.974
- NCI-H2347 — lower, 0.903
- NCI-H1395 — lower, 0.964
- 201T — lower, 1
- NCI-H1915 — lower, 1.08
- HCC-827 — lower, 0.967
- LXF-289 — lower, 0.956
- NCI-H23 — lower, 0.986
- NCI-H647 — higher, 1.13
- NCI-H1651 — lower, 0.882
- EPLC-272H — lower, 0.602
- NCI-H1355 — lower, 0.91
- NCI-H3122 — lower, 0.96
- NCI-H1437 — higher, 1.19
- NCI-H1755 — lower, 0.882

Same assay, conditions: first compound 1.265 µM

Point of comparison: NCI-H1651, relative viability 0.771. Against it:
- LK-2 — higher, 1.51
- NCI-H2087 — higher, 1.12
- H3255 — higher, 1.09
- LOU-NH91 — higher, 1.01
- NCI-H2170 — higher, 0.934
- NCI-H2405 — higher, 1.05
- HOP-62 — higher, 1.06
- LU99A — higher, 0.788
- BEN — higher, 1.16
- HARA — higher, 0.819
- HCC-78 — lower, 0.592
- NCI-H322M — higher, 0.87
- LCLC-97TM1 — higher, 1.09
- A-427 — higher, 1.11
- NCI-H441 — higher, 1.05
- NCI-H1734 — higher, 0.936
- NCI-H460 — higher, 1.06
- NCI-H2347 — lower, 0.723
- NCI-H1395 — higher, 1.05
- 201T — higher, 1.29
- NCI-H1915 — higher, 1.06
- HCC-827 — higher, 1.06
- LXF-289 — higher, 0.941
- NCI-H23 — higher, 0.83
- NCI-H647 — higher, 1.35
- CAL-12T — higher, 1.23
- EPLC-272H — lower, 0.612
- NCI-H1355 — higher, 1.07
- NCI-H3122 — higher, 0.974
- NCI-H1437 — higher, 1.25
- NCI-H1755 — higher, 1.03

Same assay, conditions: first compound 4 µM

Point of comparison: BEN, relative viability 0.77. Against it:
- LK-2 — higher, 1.6
- NCI-H2087 — higher, 0.982
- H3255 — higher, 0.849
- LOU-NH91 — higher, 0.817
- NCI-H2170 — higher, 0.957
- NCI-H2405 — higher, 0.859
- HOP-62 — higher, 0.924
- LU99A — higher, 0.796
- HARA — higher, 1.02
- HCC-78 — lower, 0.481
- NCI-H322M — lower, 0.696
- LCLC-97TM1 — higher, 0.843
- A-427 — higher, 1.13
- NCI-H441 — higher, 0.804
- NCI-H1734 — higher, 0.837
- NCI-H460 — lower, 0.305
- NCI-H2347 — higher, 0.863
- NCI-H1395 — higher, 0.981
- 201T — higher, 1.05
- NCI-H1915 — higher, 0.99
- HCC-827 — higher, 1.03
- LXF-289 — higher, 0.88
- NCI-H23 — higher, 0.781
- NCI-H647 — higher, 1.17
- CAL-12T — higher, 0.889
- NCI-H1651 — lower, 0.356
- EPLC-272H — lower, 0.508
- NCI-H1355 — higher, 0.967
- NCI-H3122 — higher, 0.889
- NCI-H1437 — higher, 1.14
- NCI-H1755 — higher, 0.884

These cell lines were tested with CC(C)CCN1c2nc(Nc3cc(F)c(O)c(F)c3)ncc2N(C)C(=O)C1C [BI-D1870] + NC(=O)Nc1cc(-c2cccc(F)c2)sc1C(=O)N[C@H]1CCCNC1 [AZD7762] (partner 0.2 µM) in the same assay as above. Conditions: first compound 0.04 µM.
Procedure, shortened: as §1

LK-2 gave a relative viability of 0.509.
